Tests used:
14-3-3/Pin1 complex = tested on: 14-3-3/Pin1 complex; design: method as in PMID 34047554; details: 100 μM compound; cited from earlier work
14-3-3ζ/p53 peptide = molecular target: T1, 14-3-3ζ/p53 peptide (Homo sapiens, UniProt P63104); assay: FA peptide screen, 14-3-3ζ titration to client peptide and compound: p53; assay type: binding; details: 250 μM compound, 100 nM peptide; +1 Glu
T1 construct: made in house; host or cells: NiCo21 (DE3) E. coli
Experimental: (§1) Since the hub protein 14-3-3 binds to hundreds of phosphoprotein partners, selectivity of PPI stabilization is a major challenge. The interplay of chemical reactivity, and the topology and functionality of the composite binding pocket shaped by 14-3-3 and Tau potentially provide entries towards selective stabilization. […] Here, 14-3-3ζ was titrated to a constant concentration of client peptide (100 nM) and compound (250 μM) to determine the SF250μM values for the particular 14-3-3 PPI. A variety of 14-3-3 binding proteins was represented in this client panel whereby the size and hydrophobicity of the +1 amino acid were varied. […]
(§2) chromatography (HisTrap high performance cartridges, Cytiva). […] Dialyzed protein was concentrated to ∼40 mg/mL, analyzed by Q -Tof LC/MS, and aliquots were flash -frozen for storage at −80 °C. […]
(§3) 0.1% (v/v) Tween20, 0.1% (w/v) BSA). […] Measurements were performed directly after plate preparation, using a Tecan SPARK plate reader at room temperature ( λex: 485±20 nm; λem: 535±25 nm; mirror: automatic; flashes: 30; settle time: 1 ms; gain: optimal; Z -position: calculated from well). […] All data were analyzed using GraphPad Prism (10.0.1) and fitted with a four -parameter logistic model (4PL) to determine binding affinities (dissociation constant, KD). […]
(§4) Fluorescence Anisotropy – peptide screen […]

14-3-3ζ/p65 peptide = molecular target: T2, 14-3-3ζ/p65 peptide (Homo sapiens, UniProt P63104); assay: FA peptide screen, 14-3-3ζ titration to client peptide and compound: p65; assay type: binding; details: 250 μM compound, 100 nM peptide; +1 Ile
T2 construct: made in house; host or cells: NiCo21 (DE3) E. coli
Experimental: as §1, §2, §3, §4

14-3-3ζ/SOS1 peptide = molecular target: T3, 14-3-3ζ/SOS1 peptide (Homo sapiens, UniProt P63104); assay: FA peptide screen, 14-3-3ζ titration to client peptide and compound: SOS1; assay type: binding; details: 250 μM compound, 100 nM peptide; +1 Ala
T3 construct: made in house; host or cells: NiCo21 (DE3) E. coli
Experimental: as §1, §2, §3, §4

T3 sequence (P63104 whole entry, other chains not shown): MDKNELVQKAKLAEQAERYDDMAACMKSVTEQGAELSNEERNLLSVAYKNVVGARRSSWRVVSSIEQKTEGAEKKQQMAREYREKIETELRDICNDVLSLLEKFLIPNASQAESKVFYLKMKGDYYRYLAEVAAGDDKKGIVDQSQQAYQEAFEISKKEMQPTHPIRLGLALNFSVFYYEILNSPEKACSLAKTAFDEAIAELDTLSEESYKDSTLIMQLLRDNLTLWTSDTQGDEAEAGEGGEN
T2 sequence (P63104 whole entry, other chains not shown): as above
T1 sequence (P63104 whole entry, other chains not shown): as above

SMILES	SF100μM for stabilization of the 14-3-3/Pin1 complex (14-3-3/Pin1 complex)	stabilization of 14-3-3/p53 peptide (in words) (14-3-3ζ/p53 peptide)	stabilization of 14-3-3/p65 peptide (in words) (14-3-3ζ/p65 peptide)	stabilization of 14-3-3/SOS1 peptide (in words) (14-3-3ζ/SOS1 peptide)
O=Cc1ccc(-n2ccnc2-c2ccccc2)cc1Br [Compound 1]	10	–	–	–
CCc1ccc(-c2nccn2-c2ccc(C=O)c(Br)c2)cc1 [Compound 18]	–	did not show significant stabilizing activity	minor off-target effects	minor off-target effects
